Measurements as given in article PMC4414571, “Peptides of Presenilin-1 Bind the Amyloid Precursor Protein Ectodomain and Offer a Novel and Specific Therapeutic Approach to Reduce ß-Amyloid in Alzheimer’s Disease” (PLoS ONE, 2015).
Ends that are not written are not given here.

Legend:
[1] = system: NICD (γ-secretase activity); test: NICD levels in neocortex of treated mThy1-hAPP mice by Western blot (γ-secretase activity); assay type: in vivo, mouse; settings: peptide-infused mThy1-hAPP mice vs PBS, n = 5, two weeks after end of treatment
Description: Extracts of neocortex of mThy1-hAPP mice treated with P4, P8 or PBS only were electrophoresed on SDS gels and Western blotted with primary rabbit antibodies against NICD (Cat# 07–1232, Millipore) at 4°C overnight, followed by horse-radish peroxidase (HRP)-conjugated goat anti-rabbit IgG (Bio-Rad). The immunoreactive bands were detected by chemiluminescence (Thermo Scientific).
An optimal therapeutic approach to AD would avoid producing serious effects on other biochemically and physiologically important processes, as would occur if the cleavages of any of the other substrates of β- or γ-secretase were affected in the process of reducing the levels of Aβ. An especially well-studied example is the γ-secretase activity of PS-1 that is critically involved in the final enzymatic cleavage of Aβ from APP; it also functions in an essential developmental process that generates NICD from Notch. […] At the same time we analyzed the same tissue samples for their β-secretase (BACE-1) activity and APP expression. Extracts were prepared of the neocortex of Tg mice that had been treated with P4, P8 or PBS, and the levels of NICD were determined by Western blot analysis with a primary rabbit Ab against NICD. […]

[2] = ref evidence that will be presented elsewhere, cited from earlier work
From the text: Two types of technologies have largely been pursued in the field thus far in efforts to reduce the levels of Aβ: β- or γ- secretase inhibitors or modulators, and the use of Aβ-specific monoclonal antibodies. Neither approach has been entirely successful, and γ-secretase inhibitors have been particularly problematic because of off-target effects due to the inhibition of their other substrates, Notch in particular.

[3] = target: T1, soluble ectodomain of APP (APPs, APP 695) (Homo sapiens, UniProt P05067); test: Biolayer interferometry, biotinylated peptides on streptavidin biosensors vs purified soluble APP (APPs); assay type: binding; settings: 30°C, biotinylated peptide on SA biosensors
T1 construct: host or cells: Sf9 insect cells (baculovirus), conditioned medium
Description: Sf9 cells (ATCC CRL 1711) were grown in TMN-FH complete medium (Pharmingen) in suspension and infected at a multiplicity of infection of 2 with a titred stock of recombinant virus expressing human APP695. Conditioned media and/or cells were harvested 6 days after infection. Cells and debris were removed by centrifugation (at 1000 x g for 15 min).
Recombinant baculoviruses were produced according to published protocols. A fragment containing full-length APP 695 was subcloned into the baculovirus transfer vector pBlueBac3 (Invitrogen). The resulting recombinant vector was co-transfected with baculovirus DNA into sf9 cells. Recombinant APP expression was verified by Western blot hybridization using mouse MAb against human APP (Cat # MAB348, Millipore).
APPs was purified from baculovirus conditioned medium to >95% purity, as assessed by densitometry analysis of Coomassie stained SDS PAGE gels, by Arvys Proteins, Stamford, CT, using the following strategy. The conditioned medium proteins were purified by heparin-affinity chromatography, followed by two gel filtration chromatography steps over HiPrep Sephacryl S300 columns and two steps of anion exchange chromatography on HiTrapQ columns.
The binding affinities of peptides P1, scrambled P1, P4, P5, P7 and P8 for the soluble ectodomain of APP or control IgG were measured by biolayer interferometry on an Octet RED96 System (Pall FortéBio Corp., Menlo Park, CA). This system monitors interference of light reflected from two sources (an internal reflection surface and the liquid/solid interface of a fiber optic sensor) to measure the rate of binding of molecules to the biosensor surface.
Peptides were synthesized and biotinylated at the NH2-terminus by Dr. Michael Freydkin at Biopeptides, Inc., San Diego, CA, and purified to >95% by HPLC. Biotinylated peptides were loaded onto Streptavidin (SA) biosensors (Pall FortéBio Corp.) at empirically determined concentrations. All affinity measurements were carried out in Kinetics Buffer (KB) (1X PBS, 0.002% Tween-20, and 0.01% BSA) at 30°C. Typically, the biosensors were pre-equilibrated in KB for 120s, loaded with a biotinylated peptide at optimal concentrations and times, quenched with 10 μg/ml biocytin in KB for 180s, brought to baseline in KB for 120s and transferred to wells containing purified APPs (0–200 nM). Multiple negative controls were run for each peptide including association buffer only (no APP) or with IgG replacing APP. Binding kinetics were calculated using the FortéBio Data Analysis v7.1 software. The association (k on) and dissociation (k off) rate constants were obtained by fitting the association and dissociation data to a 1:1 model. Binding affinity, KD, was calculated as k off/k on.

[4] = system: NICD / γ-secretase in Jurkat cells; test: NICD levels in extracts of Jurkat cells by ELISA (γ-secretase activity); settings: 0–10 μM, 24 h, 450 nm, percent control, n = 2–3
Description: Jurkat cells (Sigma) were cultured in RPMI 1640 medium supplemented with 10% FCS, 2 mM L-glutamine, penicillin and streptomycin at 37°C in the presence of 5% CO2. […] After harvesting the cells, extracts were prepared by sonication in lysis buffer (Cell Signaling Technologies) supplemented with 1mM PMSF and complete protease inhibitor cocktail (Roche). The solubilized extracts were then used in ELISA assays to determine NICD levels, as a measure of γ-secretase activity, using the PathScan Cleaved Notch 1 (Val 1744) sandwich ELISA kit (Cell Signaling Technologies) according to the manufactuer’s protocols.

[5] = system: IMR-32 human neuroblastoma cell-line (endogenous Aβ40 or 42 production); test: Endogenous Aβ40 and 42 production in IMR-32 culture medium by ELISA; assay type: cell-based
Description: A human neuroblastoma cell-line, IMR-32 (ATCC CCL-127) was cultured in MEM Earles medium containing 10% fetal bovine serum, 2 mM L-glutamine in the presence of penicillin and streptomycin. Equal numbers of cells (0.3 x 10^6 per well) were plated on 6-well plates overnight. Peptides (0–5 μM) were added to fresh culture medium (500 μl per well) and left in the incubator for 24 hours, after which the culture medium from each well was removed and stored at -80°C in the presence of 4-(2-Aminoethyl) benzenesulfonyl fluoride hydrochloride (AEBSF) and protease inhibitors. Prior to use, the culture medium was centrifuged in an eppendorf microfuge for 5 min at 4°C, the supernatant diluted with an equal volume of sample diluent buffer (Wako) and analyzed for the presence of Aβ40 or 42 using a commercial ELISA kit (Wako).

BACE-1 in IMR-32 cells = test: BACE-1 activity in extracts of cultured IMR-32 cells; assay type: cell-based, human; settings: 0–5 μM, 24 h, SensiZyme kit, 405 nm, percent control, n = 2–3
Description: IMR-32 cells in culture were treated with peptides P4, P8 and scrambled peptide P1 (0–5 μM) or the BACE-1 inhibitor […] (Selleck Chemicals) (0–500 nM) for 24 h. Cells were harvested and extracts prepared by sonication and solubilization in cell lysis buffer containing 1% Triton X-100 and EDTA (Cell Signaling Technologies) and supplemented with complete protease inhibitor cocktail (Roche) according to the manufacturer’s protocols. BACE-1 activity was measured as already described above using the SensiZyme BACE-1 activity assay kit.

T1 sequence (P05067 18-612 isoform P05067-4 limits assumed): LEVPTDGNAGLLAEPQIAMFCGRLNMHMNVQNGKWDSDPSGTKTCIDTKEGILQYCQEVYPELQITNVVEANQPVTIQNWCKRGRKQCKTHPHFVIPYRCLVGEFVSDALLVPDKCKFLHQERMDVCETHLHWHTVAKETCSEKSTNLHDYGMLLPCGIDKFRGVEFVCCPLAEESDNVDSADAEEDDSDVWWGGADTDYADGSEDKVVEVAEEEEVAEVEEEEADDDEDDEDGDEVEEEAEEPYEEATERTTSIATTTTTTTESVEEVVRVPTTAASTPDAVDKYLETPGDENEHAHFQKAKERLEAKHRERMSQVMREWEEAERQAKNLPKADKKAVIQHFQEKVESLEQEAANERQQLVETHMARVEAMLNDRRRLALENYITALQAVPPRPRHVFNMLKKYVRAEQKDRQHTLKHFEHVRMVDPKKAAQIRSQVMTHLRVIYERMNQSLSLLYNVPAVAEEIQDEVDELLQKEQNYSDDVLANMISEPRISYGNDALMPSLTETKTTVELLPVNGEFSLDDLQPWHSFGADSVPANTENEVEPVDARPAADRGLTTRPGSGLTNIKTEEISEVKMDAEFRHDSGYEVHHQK

Sequence	NICD levels in neocortex (in words) [1]	Stability (in words) ([2]; matrix not stated)	Brain delivery (in words) ([2]; rats)	koff ([3]; 1:1 model, Kinetics Buffer) [s⁻¹]	kon ([3]; 1:1 model, Kinetics Buffer) [M⁻¹ s⁻¹]	Kd ([3]; k off/k on, 1:1 model, Kinetics Buffer (1X PBS, 0.002% Tween-20, 0.01% BSA)) [nM]	NICD levels in Jurkat cells, peptides (in words) [4]	Effect on Aβ40 and 42 production in vitro (in words) ([5]; 0–5 μM peptide, 24 h, IMR-32 culture medium, ELISA)	Production of total Aβ and of Aβ 40 and 42 (summary in words) ([5]; Discussion summary, stated as in vitro and in vivo (mThy1-hAPP Tg mice))	Binding to purified APPs (in words) ([3]; Kinetics Buffer)	BACE-1 activity in IMR-32 cells, peptides (in words) (BACE-1 in IMR-32 cells)
DEEEDEEL [Peptide P8]	not accompanied by any significant changes in the levels of NICD	stable	can be successfully delivered to the brain in rats	0.00306	886000	3.45	no appreciable change in the levels of NICD	–	–	–	–
PTERLLKGTVRLKQQLDQDESDARNLRNNLNPQRGFMALDESERHENRSAMQVESHQNPHPPYETEQENDEGSGSEYSNV [SP1, scrambled P1, control peptide]	–	–	–	–	–	–	–	no significant changes in Aβ levels	did not reduce Aβ	no significant binding to APP	remained essentially unchanged
